Experimental data reported in patent US5607967A, “Treatment of alzheimer's disease with 5-(tetradecyloxy)-2-furan carboxylic acid” (Merck & Co., Inc., priority 1994, dated 1997).

Columns and labels:
[1] = tested on: Muscarinic receptor agonist (Pilocarpine) induced catalepsy; experiment: Pilocarpine induced catalepsy (Bar method); format: in vivo, rat; details: carrier pretreatment, 24 h later 16 mg/kg Pilocarpine
Protocol: Catalepsy was determined by a modification of the Bar method (Undie and Friedman, 1988). A steel bar, 1.1 cm in diameter and 50 cm long, was suspended at a height of 10 cm above the working surface. Three sides of the bench around the bar were walled off with brown cardboard, and the linings on the bench surface were selected to be of the same color with the cardboard walls. The animal's hind limbs were freely placed on the bench, the fail laid out to the back, and the forelimbs placed over the bar. The length of time a rat stayed up on the bar was noted up to a preset cut-off point of 120 s. The time was counted off upon observing any of the following actions: (1) the animal came off, placing its two forepaws on the bench, (2) the animal climbed onto or over the bar with both hind limbs, (3) the animal initiated locomotion along or around the bar. Subsequently, time readings were translated into scores by awarding a score of 1 for each successfully completed 5 s on the bar. For each observation time, catalepsy scores were averaged for all the animals in a group to give the Mean Score of the group at that observation time. Further, the scores for each animal at all the observation times were added to give the total score for that animal. The mean of this last group of numbers was called the Mean Total Score of the group.
Catalepsy scores were analyzed by computer in accordance with the statistical procedures outlined by Winer, B. J.: Statistical principles in experimental design. McGraw-Hill, New York, pp. 10-428, 1971. Generally, for a given set of comparisons, observations were subjected to an appropriate analysis of variance followed by two-tailed Dunnett or Student's t-tests to detect differences between treatment groups.
Rats were pretreated with 0.4 mg/kg TOFA or with carrier (S.C.). Twenty-four hours later, the rats were challenged with 16 mg/kg Pilocarpine, an agonist of the muscarinic cholinergic receptor, and the duration of catalepsy was monitored as described in Example 10.

GR/NER chimeric receptor = experiment: Ligand dependent transcription assay, GR/NER chimeric receptor with MMTV-luciferase reporter; format: cell-based, human
Protocol: To search for putative ligands for the NER receptor, the chimeric receptor GR/NER was prepared. […] Chimeric receptors were prepared in which the amino terminal portion of the mouse glucocorticoid receptor (mGR) that includes the DNA binding domain was fused to the putative ligand binding domains of the nuclear receptor NER to form the respective chimeric receptor GR/NER. The cDNA sequences coding for amino acid residues Arg^155 and Glu^156 of the hNER receptor (Shinar et al., NER, a new member of a gene family encoding the steroid hormone nuclear receptor; GENE (in press) were convened to the Xho I restriction site, which site was later used for the ligation to the GR cDNA sequences that coded for the DNA binding domain. Thus, the amino acid residues Arg^155 and Glu^156 of the NER receptor were convened to amino acid residues Ser^155 and His^156.
The chimera was employed in ligand dependent transactivation assays with the reporter gene MMTV-luciferase, in which the luciferase cDNA is transcribed under the control of the MMTV promoter.
(§1) Similar hybrid receptors GR/NER, GR/NUC and GR/PPAR, in identical expression plasmid backgrounds were prepared essentially as described for the construction of the GR/mPPAR and GR/NUC chimeric receptors in Schmidt et al., "Identification of a new member of the steroid hormone receptor superfamily that is activated by a peroxisome proliferator and fatty acids," Mol. Endocrinol., 6(10):1634-41, 1992, and in Boie et al., "Enantioselective activation of the peroxisome proliferator-activated receptor", J. Biol. Chem. 268(8):5530-4, 1993.
(§2) Briefly, the amino terminal portion of the mouse glucocorticoid receptor (mGR), that includes the DNA binding domain was fused to the putative ligand binding domains of the nuclear receptor NER, hNUC-I (Schmidt et al., 1992), mPPAR (Issenmann and Green, 1990) to form the respective chimeric receptors GR/NER, GR/NUC and GR/PPAR. The GR/NER chimeric receptor was constructed as described for the GR/NUC and GR/PPAR hybrid receptors (Schmidt et al., 1992; Boie et al). The cDNA sequences coding for amino acids Arg^155 and Glu^156 of the NER receptor were converted to the Xho I restriction site, that was later used for the ligation to the GR cDNA sequences that coded for the DNA binding domain. Thus, converting amino acid residues Arg^155 and Glu^156 of NER receptor to amino acid residues Ser^155 and His^156.

[2] = target: T1, GR/PPAR chimeric receptor (Mus musculus, UniProt P23204); experiment: Ligand dependent transcription assay, GR/PPAR chimeric receptor with MMTV-luciferase reporter; format: cell-based
T1 construct: COS cells, MMTV-luciferase
T1 sequence (P23204 1-468): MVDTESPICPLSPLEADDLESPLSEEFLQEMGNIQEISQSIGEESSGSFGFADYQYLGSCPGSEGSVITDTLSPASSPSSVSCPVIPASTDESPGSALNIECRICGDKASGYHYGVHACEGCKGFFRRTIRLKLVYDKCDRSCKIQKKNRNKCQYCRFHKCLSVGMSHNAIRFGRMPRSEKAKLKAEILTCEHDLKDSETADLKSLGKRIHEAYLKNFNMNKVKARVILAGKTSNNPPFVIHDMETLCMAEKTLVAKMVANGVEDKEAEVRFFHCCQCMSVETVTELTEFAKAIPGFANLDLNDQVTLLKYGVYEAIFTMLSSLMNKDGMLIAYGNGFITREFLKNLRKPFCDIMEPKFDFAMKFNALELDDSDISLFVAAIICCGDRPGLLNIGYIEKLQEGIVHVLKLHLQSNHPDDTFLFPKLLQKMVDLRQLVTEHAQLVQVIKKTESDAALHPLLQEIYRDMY
T1 sequence (P06537 1-792 partner): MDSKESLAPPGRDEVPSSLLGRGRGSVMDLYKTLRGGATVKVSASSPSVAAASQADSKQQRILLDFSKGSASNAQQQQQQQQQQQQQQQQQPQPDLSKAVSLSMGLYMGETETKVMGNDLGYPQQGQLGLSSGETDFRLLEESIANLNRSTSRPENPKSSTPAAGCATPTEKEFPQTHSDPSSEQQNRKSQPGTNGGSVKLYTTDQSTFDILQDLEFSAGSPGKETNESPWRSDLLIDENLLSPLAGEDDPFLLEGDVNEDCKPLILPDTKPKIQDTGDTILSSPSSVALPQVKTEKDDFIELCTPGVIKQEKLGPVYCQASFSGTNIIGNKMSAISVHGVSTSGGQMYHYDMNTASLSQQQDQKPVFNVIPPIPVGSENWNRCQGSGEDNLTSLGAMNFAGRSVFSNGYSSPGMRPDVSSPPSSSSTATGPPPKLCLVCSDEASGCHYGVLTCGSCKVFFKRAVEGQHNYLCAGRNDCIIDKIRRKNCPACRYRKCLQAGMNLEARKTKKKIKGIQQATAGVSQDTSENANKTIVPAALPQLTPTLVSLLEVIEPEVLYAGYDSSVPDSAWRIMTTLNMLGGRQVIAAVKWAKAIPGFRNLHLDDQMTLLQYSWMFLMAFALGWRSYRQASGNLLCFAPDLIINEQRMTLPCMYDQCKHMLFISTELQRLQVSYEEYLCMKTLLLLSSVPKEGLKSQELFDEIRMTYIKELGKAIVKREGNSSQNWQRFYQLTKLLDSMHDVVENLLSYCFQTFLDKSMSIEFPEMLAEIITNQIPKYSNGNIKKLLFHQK
Protocol: as §1, §2
The ligand transcription assay mediated by GR/PPAR in COS cells was performed as described in Example 4. The cells were treated with TOFA and Cerulenin at 0.1, 1, 10 and 100 μM.

PC12 cells = experiment: Neurite differentiation of PC12 cells; format: cell-based; details: NGF alone (100 ng/mL), 4 days
Protocol: To further study the influence of TOFA on the nervous system, we tested the effect of TOFA on the differentiation of PC12 cells. PC12 cells were plated at a density of approximately 100-200/mm^2 on collagen coated plates or dishes in RPMI medium supplemented with 10% horse serum, 5% fetal calf serum, […] streptomycin, 50 U/mL penicillin in a water saturated atmosphere of 95% air and 5% CO2, at 37° C. overnight. Medium was replaced with fresh RPMI containing 1.5% serum, 100 ng/mL NGF and the indicated concentration of TOFA or an equivalent volume of vehicle (DMSO) giving a final concentration of 0.1% DMSO.
At different time points during the treatment, cells were photographed or fixed with 10% formalin. Morphology was examined after four days of treatment with TOFA or vehicle (DMSO). The number of cells beating neurites and average length of neurites were determined with the aid of the Bioquant imaging system. […] However, as depicted in Table 6 below, NGF alone induced a 15% increase in the number of cells bearing neurites and these outgrowths reached a mean length of 20 μm. Treatment with NGF and TOFA increased the percentage of cells beating neurites to 78%. Maximal neurite generation is observed at a concentration of 10 μM TOFA.
Cells were treated with vehicle (0.1% DMSO) or various concentrations of TOFA in the presence of 100 ng/mL NGF for 4 days, and then fixed with 10% formalin. At least eighty cells from eight wells were analyzed in each group. The results are shown as the mean ±SEM. ^a p<0.01, versus vehicle by Dunnetts test.

Question: For `CC[C@@H]1C(=O)OC[C@@H]1Cc1cncn1C` [Pilocarpine, pilocarpine, reference compound], which “Catalepsy Duration” value [1] is on record?
Answer: Its value is 27.3 ± 3.6 s.

Question: What does the source list for `Cc1cccc(Nc2cc(Cl)nc(SCC(=O)O)n2)c1C` [WY14643, reference compound]?
Answer: Expression mediated by GR/NER (GR/NER chimeric receptor): not by the GR/NER chimera; Expression mediated by GR/PPAR [2]: activated expression

Question: Which “Mean length of neurite outgrowths” value (PC12 cells) does the source give for NGF: nerve growth factor here?
Answer: Its value is 20 μm.

Question: What about the “Number of cells bearing neurites” value (PC12 cells) of the same compound?
Answer: Its value is 15%.
